Experimental data taken from patent publication US9878978B2, “Processes for the diazotization of 2,5-dichloroanilines” (priority 2013, dated 2018).

Tests used:
[1] = 2,5-Dichlorophenol stability at 120° C. with or without sodium nitrite and sulfamic acid; format: physicochemical; conditions: 120° C. in the various solvents, without sodium nitrite
Experimental: In this study, 2,5-dichlorophenol was stirred at 120° C. in the presence or absence of sodium nitrite and/or sulfamic acid. The 2,5-dichlorophenol itself was stable and either dissolved or melted in the various solvents at 120° C. Upon addition of sodium nitrite to the solution and heating at 120° C. for 30 minutes, all of the solutions had some byproduct formation. The experiments were repeated with sulfamic acid added at 1.1 times the sodium nitrite equivalents with heating to 120° C. for 30 minutes as before. Byproduct formation was reduced, and only the solutions containing sulfuric acid had byproducts.

[2] = acetic acid/sulfuric acid reaction mixture stored at room temperature for two weeks
[3] = Solubility study of 2,5-dichloroaniline in different solvents; format: physicochemical
Experimental: Three different commercially available sources of 2,5-dichloroaniline (Sigma, Acros, and AlfaAesar) were evaluated for solubility in several different solvents under the specific conditions reported in Table 5-A. The 2,5-dichloroaniline obtained from Sigma was evaluated with and without milling.
In contrast, it was insoluble in concentrated hydrochloric acid, 75% sulfuric acid (weight/weight sulfuric acid/water), and formic acid at all temperatures tested. Although 2,5-dichloroaniline was soluble in concentrated sulfuric acid at 80° C., solubility at the lower temperatures tested still was limited. Milling the 2,5-dichloroaniline did appear to improve solubility in concentrated sulfuric acid.
When sulfuric acid was added to the milled or unmilled 2,5-dichloroaniline, the 2,5-dichloroaniline clumped up and formed a “crust” on itself. It is hypothesized that this crust is a 2,5-dichloroaniline sulfate salt that forms and creates a salt capsule enclosing the 2,5-dichloroaniline thereby further reducing 2,5-dichloroaniline solubility. With vigorous stirring by stir bar or paddle-equipped stir rod, the mixture containing the “crusted” 2,5-dichloroaniline typically can be converted to a slurry of the 2,5-dichloroaniline sulfate salt.

Oc1cc(Cl)ccc1Cl [2,5-dichlorophenol]
stable: Stability [1]

N#[N+]c1cc(Cl)ccc1Cl [2,5-Dichlorobenzene diazonium, 2,5-dichlorobenzenediazonium]
no degradation: Degradation on storage [2]

Nc1cc(Cl)ccc1Cl [2,5-dichloroaniline]
readily soluble: Solubility ([3]; acetic acid, all temperatures) | Solubility ([3]; trifluoroacetic acid, all temperatures)
insoluble: Solubility ([3]; 75% sulfuric acid (weight/weight sulfuric acid/water), all temperatures tested) | Solubility ([3]; concentrated hydrochloric acid, all temperatures tested) | Solubility ([3]; formic acid, all temperatures tested)
soluble: Solubility ([3]; concentrated sulfuric acid, 80° C.)
Soluble: Solubility ([3]; Acros, not milled, Conc. H2SO4, molarity 1.12, 25° C.) | Solubility ([3]; Acros, not milled, Conc. H2SO4, molarity 1.12, 80° C.) | Solubility ([3]; Acros, not milled, Conc. H2SO4, molarity 2.24, 80° C.) | Solubility ([3]; Acros, not milled, Glacial Acetic Acid, molarity 1.12, 10° C.) | Solubility ([3]; Acros, not milled, Glacial Acetic Acid, molarity 1.12, 25° C.) | Solubility ([3]; Acros, not milled, Glacial Acetic Acid, molarity 1.12, 80° C.) | Solubility ([3]; Acros, not milled, Glacial Acetic Acid, molarity 2.24, 10° C.) | Solubility ([3]; Acros, not milled, Glacial Acetic Acid, molarity 2.24, 25° C.) | Solubility ([3]; Acros, not milled, Glacial Acetic Acid, molarity 2.24, 80° C.) | Solubility ([3]; AlfaAesar, not milled, Conc. H2SO4, molarity 1.12, 80° C.) | Solubility ([3]; AlfaAesar, not milled, Glacial Acetic Acid, molarity 2.24, 10° C.) | Solubility ([3]; AlfaAesar, not milled, Glacial Acetic Acid, molarity 2.24, 25° C.) | Solubility ([3]; AlfaAesar, not milled, Glacial Acetic Acid, molarity 2.24, 80° C.) | Solubility ([3]; Sigma, milled, Conc. H2SO4, molarity 0.58, 10° C.) | Solubility ([3]; Sigma, milled, Conc. H2SO4, molarity 0.58, 25° C.) | Solubility ([3]; Sigma, milled, Conc. H2SO4, molarity 1.16, 10° C.) | Solubility ([3]; Sigma, milled, Conc. H2SO4, molarity 1.16, 25° C.) | Solubility ([3]; Sigma, milled, Conc. H2SO4, molarity 2.13, 10° C.) | Solubility ([3]; Sigma, milled, Conc. H2SO4, molarity 2.13, 25° C.) | Solubility ([3]; Sigma, milled, Glacial Acetic Acid, molarity 1.16, 10° C.) | Solubility ([3]; Sigma, milled, Glacial Acetic Acid, molarity 1.16, 25° C.) | Solubility ([3]; Sigma, milled, Glacial Acetic Acid, molarity 2.24, 10° C.) | Solubility ([3]; Sigma, milled, Glacial Acetic Acid, molarity 2.24, 25° C.) | Solubility ([3]; Sigma, not milled, Conc. H2SO4, molarity 2.24, 80° C.) | Solubility ([3]; Sigma, not milled, Glacial Acetic Acid, molarity 2.24, 25° C.) | Solubility ([3]; Sigma, not milled, Glacial Acetic Acid, molarity 2.24, 80° C.) | Solubility ([3]; Sigma, not milled, Trifluoracetic Acid, molarity 2.24, 10° C.) | Solubility ([3]; Sigma, not milled, Trifluoracetic Acid, molarity 2.24, 25° C.) | Solubility ([3]; Sigma, not milled, Trifluoracetic Acid, molarity 2.24, 80° C.)
limited: Solubility ([3]; concentrated sulfuric acid, lower temperatures tested)
Partial: Solubility ([3]; Acros, not milled, Conc. H2SO4, molarity 1.12, 10° C.) | Solubility ([3]; Acros, not milled, Conc. H2SO4, molarity 2.24, 10° C.) | Solubility ([3]; Acros, not milled, Conc. H2SO4, molarity 2.24, 25° C.) | Solubility ([3]; AlfaAesar, not milled, Conc. H2SO4, molarity 1.12, 10° C.) | Solubility ([3]; AlfaAesar, not milled, Conc. H2SO4, molarity 1.12, 25° C.)
Insoluble: Solubility ([3]; Sigma, not milled, 75% H2SO4, molarity 2.24, 10° C.) | Solubility ([3]; Sigma, not milled, 75% H2SO4, molarity 2.24, 25° C.) | Solubility ([3]; Sigma, not milled, 75% H2SO4, molarity 2.24, 80° C.) | Solubility ([3]; Sigma, not milled, Conc. H2SO4, molarity 2.24, 10° C.) | Solubility ([3]; Sigma, not milled, Conc. H2SO4, molarity 2.24, 25° C.) | Solubility ([3]; Sigma, not milled, Conc. HCl, molarity 2.24, 10° C.) | Solubility ([3]; Sigma, not milled, Conc. HCl, molarity 2.24, 25° C.) | Solubility ([3]; Sigma, not milled, Conc. HCl, molarity 2.24, 80° C.) | Solubility ([3]; Sigma, not milled, Formic Acid (88%), molarity 2.24, 10° C.) | Solubility ([3]; Sigma, not milled, Formic Acid (88%), molarity 2.24, 25° C.) | Solubility ([3]; Sigma, not milled, Formic Acid (88%), molarity 2.24, 80° C.)
